According to patent US11357734B2, “Pharmaceutical granulations of water-soluble active pharmaceutical ingredients” (XWPHARMA LTD., priority 2020, dated 2022):

What was measured:
Format in all cases: physicochemical
[1] = Bulk density (USP 616, Method 1; bulk density cylinder)
Excerpt: Bulk density can be determined according to USP 616, Method 1.
Bulk density can be determined using a bulk density cylinder.

[2] = Tapped bulk density (USP 616); conditions: active pharmaceutical ingredient used in Example 13
Excerpt: Tapped bulk density can be determined according to USP 616.

[3] = Specific surface area by laser diffraction
Procedure: Specific surface area can be determined by laser diffraction.
The specific surface area distributions of as-crystallized active pharmaceutical ingredient and jet-milled active pharmaceutical ingredient was determined by laser diffraction. […] In other samples, the jet milled active pharmaceutical ingredient was characterized by a specific surface area of 1174 m^2/kg.

[4] = Particle size distribution by laser diffraction
Excerpt: The parameter D90 refers to the point in the size distribution of a sample, up to and including which, 90% of the total volume of material in the sample is contained. For example for a D90 of 400 μm, 90% of the sample volume has a size of 400 μm or less. D50 is the size below which 50% of the total volume of material in the sample is contained. Similarly, D10 refers to the size below which 10% of the total volume of material in the sample is contained. The volume distribution of the sample can be determined by laser diffraction or by sieve analysis.
A particle size distribution can be determined by laser diffraction or by sieve analysis.
FIGS. 15 and 16 show a particle size distribution of as-crystallized active pharmaceutical ingredient and jet-milled active pharmaceutical ingredient, respectively, as determined by laser diffraction. The PSD of the as-crystallized active pharmaceutical ingredient was characterized by a D10 of 11.8 μm, a D50 of 34.0 μm, and a D90 of 72.3 μm. The PSD of the jet-milled active pharmaceutical ingredient was characterized by a D10 of 7.8 μm, a D50 of 16.1 μm, and a D90 of 21.5 μm.

[5] = Hausner Ratio (USP 1174); conditions: active pharmaceutical ingredient used in Example 13
Excerpt: The Hausner Ratio can be determined according to USP 1174.

[6] = active pharmaceutical ingredient used in Example 13
[7] = FIGS. 15 and 16, laser diffraction, listed as as-crystallized active pharmaceutical ingredient
[8] = FIGS. 15 and 16, laser diffraction, listed as jet-milled active pharmaceutical ingredient

Row | Compound | API Bulk Density [1, 6] [g/mL] | API Tapped Bulk Density [2] [g/mL] | specific surface area [3, 6] [m^2/kg] | specific surface area ([3]; laser diffraction, listed as as-crystallized active pharmaceutical ingredient) [m^2/kg] | PSD D10 [4, 7] [μm] | PSD D50 [4, 7] [μm] | PSD D90 [4, 7] [μm] | PSD D10 [4, 6] [μm] | PSD D50 [4, 6] [μm] | PSD D90 [4, 6] [μm] | Hausner Ratio [5] | API Bulk Density ([1]; Jet Milled API used for granulation (13)) [g/mL] | specific surface area ([3]; in other samples) [m^2/kg] | specific surface area ([3]; laser diffraction, listed as jet-milled active pharmaceutical ingredient) [m^2/kg] | PSD D10 [4, 8] [μm] | PSD D50 [4, 8] [μm] | PSD D90 [4, 8] [μm] | bulk density ([1]; active pharmaceutical ingredient of Example 9, before Comil) [g/mL] | bulk density ([1]; active pharmaceutical ingredient used in Examples 1-6) [g/mL]
1 | CC(C)[C@H](N)C(=O)OCCCC(=O)O [As-Crystallized, 4-((L-valyl)oxy)butanoic acid] | 0.20 | 0.38 | 291 | 291 | 11.8 | 34.0 | 72.3 | 12 | 34 | 71 | 1.85 |  |  |  |  |  |  |  | 
2 | CC(C)[C@H](N)C(=O)OCCCC(=O)O [Jet-Milled, 4-((L-valyl)oxy)butanoic acid] | 0.12 | 0.20 | 478 |  |  |  |  | 8 | 16 | 28 | 1.700 | 0.12 | 1174 | 478 | 7.8 | 16.1 | 21.5 |  | 
3 | CC(C)[C@H](N)C(=O)OCCCC(=O)O [active pharmaceutical ingredient, 4-((L-valyl)oxy)butanoic acid] |  |  |  |  |  |  |  |  |  |  |  |  |  |  |  |  |  | 0.263 | 0.15
